From patent US20170251943A1, “Systems Level State Characteristics in Experimental Treatment of Disease” (priority 2014, published 2017)

Tests used:
[1] = tested on: medial forebrain bundle 6-OHDA hemilesioned rat; test: CNS state characterization (LFP PSDs / spike trains, cortico-basal ganglia-thalamic loop) in dyskinetic 6-OHDA hemilesioned rat; type: in vivo
Protocol: Power spectral densities (PSDs) are calculated with a multitaper method (Pesaran, 2008) (50%-overlapping 8-s windows, 7 tapers) implemented in Chronux 2.0 (Mitra and Bokil, 2007). To stabilize the variance and to emphasize narrowband oscillations over wideband signals, PSDs are normalized to the pink noise background according to Halje et al. (Halje et al., 2012), but with one important adaptation: Due to the complexity of the data it is not practical to manually pick frequency bands with pure pink noise in all structures and conditions to get unbiased estimates of the noise background. Instead the whole frequency axis is divided into 20 logarithmically spaced bands (1-1.3, 1.3-1.7, . . . , 151.3-200 Hz) and the median power of each band is used for the fitting of the pink noise power curve S(f)=A/f^B. The pink noise normalization allows us to describe deviations from the pink noise floor in terms of the unit dBpink. As a final step, an average spectrogram is calculated for each structure, based on the spectrograms for each individual local bipolar LFP time series.
Offline spike sorting can be performed with commercially available software to obtain spike trains of individual neurons, for example Offline Sorter by Plexon Inc. Standard spike train statistics like average firing rate and coefficient of variation is then calculated and used as features in the state-space analysis.
elements, where each element is a measured variable. Typically, there are a couple of thousand variables in such a state description and it is necessary to reduce the dimensionality before it is practical to make further state characterizations. […]
To characterize the CNS effects of experimental treatment of symptoms in levodopa-induced dyskinesia, the most widely used model of this disease condition was employed—the medial forebrain bundle 6-OHDA hemilesioned rat. […] Rats were chronically implanted with 128 recording electrodes according to the methods described above and CNS activity patterns were recorded in a number of experiments performed in four adult female Sprague-Dawley rats. […]

[2] = tested on: medial forebrain bundle 6-OHDA hemilesioned rat; test: Levodopa-induced dyskinesia, dyskinetic symptoms in 6-OHDA hemilesioned rat; type: in vivo
Text: To characterize the CNS effects of experimental treatment of symptoms in levodopa-induced dyskinesia, the most widely used model of this disease condition was employed—the medial forebrain bundle 6-OHDA hemilesioned rat. In this model, parkinsonism is induced by the injection of this neurotoxin resulting in extensive neurotoxic lesions of midbrain dopaminergic neurons projecting to the forebrain. By injecting the […] in only one of the hemispheres the other hemisphere can be used as an internal control in different recordings conditions/behavioral situations. Following a period of levodopa treatment, animals developed dyskinetic symptoms affecting the side of the body contralateral to the brain lesion (Halje et al., 2012). Thus, neuronal recordings obtained in the parkinsonian and dyskinetic condition can be compared to a healthy control condition. Rats were chronically implanted with 128 recording electrodes according to the methods described above and CNS activity patterns were recorded in a number of experiments performed in four adult female Sprague-Dawley rats.

rats [3] = test: Behavioral changes in rats treated with psychosis-inducing drugs; type: in vivo, rat; settings: 10-50 min after injection
rats [4] = test: CNS state characterization (LFP PSDs, diencephalic/telencephalic structures) in pharmacological psychosis-like states; type: in vivo, rat; settings: Hippocampus, Nucleus Accumbens, Thalamus; pink noise normalized, FIG. 6
Protocol: Power spectral densities (PSDs) are calculated with a multitaper method (Pesaran, 2008) (50%-overlapping 8-s windows, 7 tapers) implemented in Chronux 2.0 (Mitra and Bokil, 2007). To stabilize the variance and to emphasize narrowband oscillations over wideband signals, PSDs are normalized to the pink noise background according to Halje et al. (Halje et al., 2012), but with one important adaptation: Due to the complexity of the data it is not practical to manually pick frequency bands with pure pink noise in all structures and conditions to get unbiased estimates of the noise background. […] As a final step, an average spectrogram is calculated for each structure, based on the spectrograms for each individual local bipolar LFP time series. […]
For this purpose, a number of diencephalic and telencephalic structures were recorded in parallel including: hippocampus [corresponding to anterior hippocampus in humans], nucleus accumbens [core and shell], medial prefrontal cortex and anterior gyrus cinguli (adapted to rodent anatomy), the mediodorsal nucleus and the medial geniculate nucleus in thalamus.

Q: With `CCCN(CCC)C1CCc2cccc(O)c2C1` (stereo not shown) [8-OH-DPAT] as the molecule, how does the “shift of CNS state in state space” value ([1]; dyskinetic rat, state spaces from spike trains and LFP PSDs, FIGS. 4 and 5) read?
A: Its value is “primarily shifted the dyskinetic state back towards the parkinsonian state”.

Q: What about the “effect on dyskinetic symptoms” value ([2]; 1 mg/kg and 0.4 mg/kg i.p. at the time point of peak dyskinesia, two experiments) of the same molecule?
A: The value was “effectively suppress dyskinetic symptoms”.

Q: For `CNC1(c2ccccc2Cl)CCCCC1=O` (stereo not shown) [Ketamine], which “behavioral change (locomotion)” value (rats [3]) is on record?
A: The value was “increased locomotion”.

Q: Which “LFP power spectra of the drug-induced psychosis-like state” value (rats [4]) does the source give for `CCN(CC)C(=O)[C@@H]1C=C2c3cccc4[nH]cc(c34)C[C@H]2N(C)C1` [LSD, lysergic acid diethylamide] here?
A: Its value is “high-frequency narrow band oscillation in n. Accumbens”.

Q: For `COc1ccccc1N1CCN(CCN(C(=O)C2CCCCC2)c2ccccn2)CC1` [WAY100635], which “reversal of 8-OH-DPAT effect on CNS state (LFP power spectral densities)” value ([1]; dyskinetic+8-OH-DPAT rat, LFP PSDs in eight structures, FIG. 4) is on record?
A: The value was “reversed the effect of 8-OH-DPAT inducing a state that closely resembles the initial dyskinetic state”.

Q: And the “reversal of 8-OH-DPAT effect on CNS state (relative firing rates of neurons)” value ([1]; dyskinetic+8-OH-DPAT rat, firing rates in eight structures of lesioned hemisphere, FIG. 5)?
A: Its value is “reversed the effect of 8-OH-DPAT to a state closely resembling the initial dyskinetic state”.

Q: And the “reversal of the anti-dyskinetic effect of the 5-HT1A agonist 8-OH-DPAT” value ([2]; given after 8-OH-DPAT in dyskinetic rat)?
A: The value was “fully reversed”.
